Experimental data as given in ChEMBL document CHEMBL5241138, “Inhibitors of Interleukin 4 Induced Protein 1 (IL4I1) as Potential Treatment for Cancer” (ACS Med Chem Lett, 2023).

Biological target: T1, L-amino-acid oxidase (Homo sapiens, UniProt Q96RQ9)
T1 sequence (Q96RQ9 whole entry): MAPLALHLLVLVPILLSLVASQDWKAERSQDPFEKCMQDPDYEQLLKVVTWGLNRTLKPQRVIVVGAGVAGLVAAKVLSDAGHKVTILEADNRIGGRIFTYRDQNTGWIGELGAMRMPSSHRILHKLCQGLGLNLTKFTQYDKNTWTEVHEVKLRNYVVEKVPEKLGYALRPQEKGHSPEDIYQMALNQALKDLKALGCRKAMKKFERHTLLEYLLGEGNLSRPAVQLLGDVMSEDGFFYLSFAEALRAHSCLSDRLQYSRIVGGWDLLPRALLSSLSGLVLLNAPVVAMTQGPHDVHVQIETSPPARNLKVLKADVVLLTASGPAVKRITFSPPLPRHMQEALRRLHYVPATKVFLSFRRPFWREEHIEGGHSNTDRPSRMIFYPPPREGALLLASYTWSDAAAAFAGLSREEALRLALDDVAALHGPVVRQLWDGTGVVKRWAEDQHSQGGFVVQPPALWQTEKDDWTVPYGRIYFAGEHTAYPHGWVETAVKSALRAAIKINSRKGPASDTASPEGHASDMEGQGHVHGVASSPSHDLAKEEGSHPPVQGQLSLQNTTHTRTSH
Assay: Inhibition of C-terminal 6-His tagged recombinant human IL4I1 (Gln22 to His567 residues) expressed in CHO cells using Phe/Tyr/Trp as substrate assessed as inhibition of H2O2 production measured after 240 mins by Amplex red and horseradish peroxidase based fluorescence assay

EC50: 0.023 µM
Structure (SMILES): O=C1C(=O)N(C2C[C@@H]3C[C@@H]3C2)CCN1Cc1ccc(-c2nccs2)nn1 (stereo partly specified)
